# Values quoted from earlier work, collected in patent US6077537A (Warner-Lambert Company, priority 1998, dated 2000).
# Conditions: relative to parent compound
structure (smiles),measurement,value
Cc1ccc(C(=CCN2CCCC2)c2cccc(CCC(=O)O)n2)cc1 [propionic acid analogue of acrivastine],plasma concentration of principal active metabolite,well below those of parent compound
